For one data set, the system named is HEK cells. Briefly: MTT cell viability assay, HEK cells. Format: cell-based. The note with it: Homo sapiens, HEK293, 48 h, read-out: IC50 (μM) Mean ± SD. The protocol:
(§1) All cell lines were purchased from the American Type Culture Collection (ATCC). The cell lines were growth at 37°C under 5% CO2 under humidified atmosphere. The cell lines K562 (derived from patients during the blast crisis phase of CML and IM sensitive), K562-R (IM resistance human CML), KmycBT15I (KBTI; IM resistant human CML, expressing the Bcr-Abl […] mutant), HEL (human erythroleukemia), HL60 (human acute myeloid leukemia), MOLM-13 (human acute myeloid leukemia), MV4.11 (human acute monocytic leukemia), HCT-15 (human colorectal adenocarcinoma), PC3 (human prostate cancer), MCF7 (human breast cancer), NCTC3749 (mouse lymphoma) as well as the MRC.5 cells (non-malignant human lung fibroblasts) were maintained in RPMI-1640 medium. The cell lines L1210 (mouse lymphocytic leukemia cells), Raw (mouse macrophage), HeLa (human epithelial cervix cancer), U-2 OS (human osteosarcoma), MG63 (human osteosarcoma) and T47D (human breast cancer adenocarcinoma) were maintained in DMEM. HEK293 cells stably expressing the GH receptor (HEKGHR) were maintained in DMEM-F12 medium. […]
(§2) Cells were seeded in 96-well plates (BD Falcon, France) at exponential growth density (5000–20000 cells/well) and treated with vehicle (0.05% DMSO) or compound (0.01 to 10 μM) for 48–72 h. […] Optical density was measured at 595 nm with the iMark Microplate Reader (BioRad, CA, USA).

The subject of data set [1] is K562 cells. Description: MTT cell viability assay, K562 cells. The note with it: for IC50: Homo sapiens. The format is cell-based, human. The protocol: All cell lines were purchased from the American Type Culture Collection (ATCC). The cell lines were growth at 37°C under 5% CO2 under humidified atmosphere. The cell lines K562 (derived from patients during the blast crisis phase of CML and IM sensitive), K562-R (IM resistance human CML), KmycBT15I (KBTI; IM resistant human CML, expressing the Bcr-Abl […] mutant), HEL (human erythroleukemia), HL60 (human acute myeloid leukemia), MOLM-13 (human acute myeloid leukemia), MV4.11 (human acute monocytic leukemia), HCT-15 (human colorectal adenocarcinoma), PC3 (human prostate cancer), MCF7 (human breast cancer), NCTC3749 (mouse lymphoma) as well as the MRC.5 cells (non-malignant human lung fibroblasts) were maintained in RPMI-1640 medium. The cell lines L1210 (mouse lymphocytic leukemia cells), Raw (mouse macrophage), HeLa (human epithelial cervix cancer), U-2 OS (human osteosarcoma), MG63 (human osteosarcoma) and T47D (human breast cancer adenocarcinoma) were maintained in DMEM. HEK293 cells stably expressing the GH receptor (HEKGHR) were maintained in DMEM-F12 medium. The human breast cancer cell line SKBR3 was maintained in McCoy’s 5A medium. Cell culture medium was supplemented with 10% FBS, L-glutamine (2 mM) and PEST. In addition, the cell culture medium for T47D was supplemented with 1 mM NaPyr and 10 mM HEPES. Human peripheral blood mononuclear cells (PBMC) were isolated from heparin-anticoagulated blood of healthy volunteers by centrifugation with Ficoll-Paque Plus (Amersham Biosciences).
Cells were seeded in 96-well plates (BD Falcon, France) at exponential growth density (5000–20000 cells/well) and treated with vehicle (0.05% DMSO) or compound (0.01 to 10 μM) for 48–72 h. The mitochondrial metabolization of the tetrazolium salt 3-(4,5-methyltiazol-2yl-)-2,5diphenyl-tetrazolium bromide] (MTT) (Applichen, Germany) was used as indicator of cell viability. Optical density was measured at 595 nm with the iMark Microplate Reader (BioRad, CA, USA).
In general terms: Formazan colour is commonly taken as a measure of viable cells.

Another data set concerns NCTC cells. Description: MTT cell viability assay, NCTC cells. Format: cell-based. The note with it: Mus musculus, 48 h, read-out: IC50 (μM) Mean ± SD. The protocol: as §1, §2
Another data set deals with MG63 cells. Description: MTT cell viability assay, MG63 cells. Format: cell-based. The note with it: Homo sapiens, MG-63, MG63, 48 h, read-out: IC50 (μM) Mean ± SD. The protocol:
as §1, §2

A further data set concerns MCF7 cells. Briefly: MTT cell viability assay, MCF7 cells. The format is cell-based. The note with it: Homo sapiens, MCF7, 48 h, read-out: IC50 (μM) Mean ± SD. As for the experimental part:
as §1, §2

A further data set has as its system HCT-15 cells. Description: MTT cell viability assay, HCT-15 cells. The format is cell-based. The note with it: Homo sapiens, HCT-15, 48 h, read-out: IC50 (μM) Mean ± SD. As for the experimental part: as §1, §2
A further data set concerns L1210 cells. Description: MTT cell viability assay, L1210 cells. The format is cell-based. The note with it: Mus musculus, L1210, 48 h, read-out: IC50 (μM) Mean ± SD. The protocol: as §1, §2
The test system of a further data set is HeLa cells. Briefly: MTT cell viability assay, HeLa cells. Format: cell-based. The note with it: Homo sapiens, 48 h, read-out: IC50 (μM) Mean ± SD. The protocol:
as §1, §2

The test system of another data set is PMBC. Briefly: MTT cell viability assay, PMBC. The format is cell-based. The note with it: Homo sapiens, 48 h, read-out: IC50 (μM) Mean ± SD. The protocol:
as §1, §2

A further data set relates to K562-R cells. Description: MTT cell viability assay, IM-resistant K562-R cells. The format is cell-based, human. The note with it: 72 h, MTT (Fig 10D). As for the experimental part:
All cell lines were purchased from the American Type Culture Collection (ATCC). The cell lines were growth at 37°C under 5% CO2 under humidified atmosphere. […] The cell lines L1210 (mouse lymphocytic leukemia cells), Raw (mouse macrophage), HeLa (human epithelial cervix cancer), U-2 OS (human osteosarcoma), MG63 (human osteosarcoma) and T47D (human breast cancer adenocarcinoma) were maintained in DMEM. HEK293 cells stably expressing the GH receptor (HEKGHR) were maintained in DMEM-F12 medium. The human breast cancer cell line SKBR3 was maintained in McCoy’s 5A medium. Cell culture medium was supplemented with 10% FBS, L-glutamine (2 mM) and PEST. In addition, the cell culture medium for T47D was supplemented with 1 mM NaPyr and 10 mM HEPES. Human peripheral blood mononuclear cells (PBMC) were isolated from heparin-anticoagulated blood of healthy volunteers by centrifugation with Ficoll-Paque Plus (Amersham Biosciences).
The mitochondrial metabolization of the tetrazolium salt 3-(4,5-methyltiazol-2yl-)-2,5diphenyl-tetrazolium bromide] (MTT) (Applichen, Germany) was used as indicator of cell viability. Optical density was measured at 595 nm with the iMark Microplate Reader (BioRad, CA, USA).

Data set [2] can be described thus: Live-cell imaging (IncuCyte HD) of proliferation and cytotoxicity, K562 cells. The format is cell-based, human. The note with it: human, K562 cells; K562, continuous exposure over 4-day period, area under curve; read-out: EC50AUC, cytotoxic effect. As for the experimental part:
(§3) Kinetic measurements of cell proliferation and cytotoxicity were carried out by using the IncuCyte^TM HD real time imaging system (Essen BioScience, Hertfordshire, United Kingdom). After seeding in a polylysine-coated 96 well-plates, K562 cells were treated with different concentrations of compound. This IncuCyte™ microscope permits the acquisition of automated phase contrast images. Individual images are processed by an imbedded contrast-based confluence algorithm, which compute monolayer confluence for each image and at each time point. Multiple images are collected per well and averaged to provide a representative statistical measure of confluence.

Data set [3] has as its system K562 cells. Described as above. Format: cell-based, human. The note with it: Homo sapiens. As for the experimental part:
as §3

In the next data set the test system is K562 tumor xenografts. Briefly: K562 tumor xenografts in NOD-SCID mice. Format: in vivo. The note with it: CM363 10 mg/kg i.p., 25 days, P = 0.004 day 4, P = 0.007 day 25. The protocol:
Six weeks old female athymic mice (NOD-SCID), were purchased from Charles River River (Barcelona, Spain), and were housed in a specifically designed pathogen-free isolation facility as reported previously. […] The vehicle and CM363 treatments were administered via intraperitoneal injection (i.p.) every day except Saturday and Sunday. […] The study was conducted over a 25 days period. Caliper measurements of the tumor diameters were performed twice per week, and the tumor volume was estimated as the volume of an ellipse using the following formula: V = 4/3n × (a/2) × (b/2)^2, where a and b correspond to the longest and shortest diameter, respectively. Mice were sacrificed when their tumor diameters reached 2 cm, or when they became moribund. Differences in tumor volumes between control and treated group were evaluated using the Mann-Whitney test.

Each structure is given as a SMILES string. Entries after “also recorded” stand apart in the source; their conditions may differ.

Consider `N#Cc1ccc(C2C3=C(CCCC3=O)OC3=C2C(=O)c2ccccc2C3=O)cc1` (centres unmarked) [CM363, 4-(1,6,11-trioxo-2,3,4,6,11,12-hexahydro-1H-benzo[b]xanthen-12-yl)benzonitrile], for which the IC50 in the data set with HEK cells was 0.6 ± 0.2 µM; in the data set with K562 cells [1] (IM sensitive K562, 72 h, MTT (Fig 10D), read-out: IC50, cell viability), approximately 0.6 µM; with K562 cells [1] (K562, 48 h, MTT, read-out: IC50 (μM) Mean ± SD), 0.7 ± 0.5 µM; with NCTC cells, 1.1 ± 0.7 µM; in the data set with MG63 cells, 1.6 ± 0.9 µM; in the data set on MCF7 cells, 1.7 ± 1.1 µM. For the same compound, the IC50 in the data set on HCT-15 cells was 3.3 µM; in the data set with L1210 cells, 3.4 ± 0.4 µM; with HeLa cells it was 4.8 ± 0.4 µM; with PMBC it was more than 5 µM; in the data set on K562-R cells (Homo sapiens, K-562R), approximately 600 nM; in the data set on K562 cells [3] (96 h, IM sensitive K562, continuous exposure over 4-day period, area under curve, read-out: IC50AUC, cytostatic effect on cell growth) it was 600 ± 300 nM. The IC50 in the data set on K562 cells [3] (K562, 2 h transient exposure, then additional 72 h without compound, read-out: IC50AUC, cytostatic effect after transient exposure) is 1900 ± 500 nM. The “lowest concentration at which inhibition was detected” value with K562 cells [1] (IM sensitive K562, 72 h, MTT (Fig 10D)) was determined as 0.3 µM; in the data set on K562-R cells, 0.3 µM. The EC50 at 4 days in [2] came out at 1100 ± 400 nM. Further, the “tumor growth (tumor volume) versus control group” value in the data set on K562 tumor xenografts is “suppressed the growth; also recorded: pronounced, and statistically significant reduction”.
